System: T-47D spheroids with HUVEC/MSC, viability
Assay: Anticancer human tumor T-47D cell line growth inhibition [PI3K];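 also: spheroids exposed to agents for seven days before reading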;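 as to viability, T/C: percent of DMSO vehicle control luminescence so 100% = untreated growth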
Settings: for viability, T/C: stronger effect = lower value
Text: Combinatorial screen of targeted agents with the PI3K inhibitors inavolisib, alpelisib, duvelisib, and copanlisib in multi-cell type tumor spheroids
A high-throughput screen of multi-cell type tumor spheroids was designed to identify active combinations of targeted small molecules and PI3K pathway inhibitors. Complex spheroids include a stromal component modeled by human endothelial cells (HUVEC) and fibroblasts modeled by human mesenchymal stem cells (MSCs). The concentration ranges selected for each drug and investigational agent were based upon clinically achievable concentrations if the clinical Cmax of the agent was known.
Compounds. The drugs and investigational agents: inavolisib (NSC800729), alpelisib (NSC765974), duvelisib (NSC772469), copanlisib (NSC816437), ipatasertib (NSC767898), afuresertib (NSC778305), talazoparib (NSC767125), sapanisertib (NSC764658), selumetinib (NSC741078), tovorafenib (DAY101, NSC766906), vemurafenib (NSC761431), ravoxertinib (NSC781343), sotorasib (NSC818433), MRTX1133 (NSC 836407), abemaciclib (NSC 768073), palbociclib (NSC758247), venetoclax (NSC 766270), SY5609 (NSC837396), enzalutamide (NSC755605), and darolutamide (NSC825331), were obtained from the National Cancer Institute (NCI) Developmental Therapeutics Program Chemical Repository. The FDA-approved anticancer drug set is available from the NCI Developmental Therapeutics Program. […] The stock solutions were prepared in dimethyl sulfoxide (DMSO, Sigma-Aldrich, St. Louis, MO, cat. D2650) at 800-fold the tested concentration and stored at -70 degrees C prior to their use. All drugs and investigational agents were tested over a range starting from a high concentration at or near the clinical Cmax and decreasing in half-log increments. If the clinical Cmax for an agent had not been determined, the highest concentration tested was 10 microM.
Cell Culture. All cells were maintained in an incubator at 37 degrees C and 5% CO2 with 95% humidity. The PDC lines were cultured according to standard operating procedures established by the NCI PDMR (https://pdmr.cancer.gov/sops/default.htm). All PDCs were thawed and cultured in Matrigel-coated flasks prepared with a working solution of 1X Ham's F-12 nutrient mix, without supplementation (Invitrogen, Waltham, MA, cat. 11765054), 100 U/mL penicillin-streptomycin (Invitrogen, cat. 15140122), and 2.5% Matrigel (Corning Inc., Corning, NY, cat. 354248) for the first three passages. The 354836-022-R-J1-PDC, 475296-252-R-J1-PDC, and 997726-040-R-J2-PDC lines were cultured in 6A media, which includes advanced DMEM/F-12 (Thermo Fisher Scientific, cat. 12634028), 10 mM HEPES (Thermo Fisher Scientific, cat. 15630080), 1X GlutaMAX supplement (Thermo Fisher Scientific, cat. 35050061), 0.1 mg/mL primocin (InvivoGen, San Diego, CA, cat. ant-pm-2), 10% defined fetal bovine serum, heat inactivated (HyClone Laboratories Inc., Logan, UT, cat. SH30070.03HI), 50% L-WRN conditioned media (ATCC, cat. CRL-3276), 1.25 mM N-Acetyl-L-cysteine (Sigma-Aldrich, cat. A9165), 10 mM nicotinamide (Sigma-Aldrich, cat. N0636), 1X B-27 supplement (Thermo Fisher Scientific, cat. 17504044), 1X N-2 supplement (Thermo Fisher Scientific, cat. 17502048), and 10 microM Y-27632 dihydrochloride (Tocris Bioscience, Bristol, United Kingdom, cat. 1254). The 624824-186-R-J2-PDC line was cultured in 6C/Colon 1B media, which includes all 6A media components plus 50 ng/mL human EGF recombinant protein (Thermo Fisher Scientific, cat. PHG0311). […]

[1] = curve of first compound, second compound 0.0316 µM
[2] = curve of first compound, second compound 0.1 µM
[3] = curve of first compound, second compound 0.316 µM
[4] = curve of first compound, second compound 1 µM
[5] = curve of first compound, second compound 3.16 µM
[6] = curve of first compound, second compound 10 µM
[7] = second compound 0.0316 µM, first compound 0.0316 µM
[8] = second compound 0.0316 µM, first compound 0.1 µM
[9] = second compound 0.0316 µM, first compound 0.316 µM
[10] = second compound 0.0316 µM, first compound 1 µM
[11] = second compound 0.0316 µM, first compound 3.16 µM
[12] = second compound 0.0316 µM, first compound 10 µM
[13] = second compound 0.1 µM, first compound 0.0316 µM
[14] = second compound 0.1 µM, first compound 0.1 µM
[15] = second compound 0.1 µM, first compound 0.316 µM
[16] = second compound 0.1 µM, first compound 1 µM
[17] = second compound 0.1 µM, first compound 3.16 µM
[18] = second compound 0.1 µM, first compound 10 µM
[19] = second compound 0.316 µM, first compound 0.0316 µM
[20] = second compound 0.316 µM, first compound 0.1 µM
[21] = second compound 0.316 µM, first compound 0.316 µM
[22] = second compound 0.316 µM, first compound 1 µM
[23] = second compound 0.316 µM, first compound 3.16 µM
[24] = second compound 0.316 µM, first compound 10 µM
[25] = second compound 1 µM, first compound 0.0316 µM
[26] = second compound 1 µM, first compound 0.1 µM
[27] = second compound 1 µM, first compound 0.316 µM
[28] = second compound 1 µM, first compound 1 µM
[29] = second compound 1 µM, first compound 3.16 µM
[30] = second compound 1 µM, first compound 10 µM
[31] = second compound 3.16 µM, first compound 0.0316 µM
[32] = second compound 3.16 µM, first compound 0.1 µM
[33] = second compound 3.16 µM, first compound 0.316 µM
[34] = second compound 3.16 µM, first compound 1 µM
[35] = second compound 3.16 µM, first compound 3.16 µM
[36] = second compound 3.16 µM, first compound 10 µM
[37] = second compound 10 µM, first compound 0.0316 µM
[38] = second compound 10 µM, first compound 0.1 µM
[39] = second compound 10 µM, first compound 0.316 µM
[40] = second compound 10 µM, first compound 1 µM
[41] = second compound 10 µM, first compound 3.16 µM
[42] = second compound 10 µM, first compound 10 µM

Compound: C#Cc1c(F)ccc2cc(O)cc(-c3ncc4c(N5CC6CCC(C5)N6)nc(OCC56CCCN5CC(F)C6)nc4c3F)c12 (centres undefined) + Cc1nc(NC(=O)N2CCCC2C(N)=O)sc1-c1ccnc(C(C)(C)C(F)(F)F)c1
- IC50 [1]: > 10 µM
- IC50 [2]: > 10 µM
- IC50 [3]: > 10 µM
- IC50 [4]: > 10 µM
- IC50 [5]: > 10 µM
- IC50 [6]: < 0.0316 µM
- viability, T/C [7]: 94.8%
- viability, T/C [8]: 91.4%
- viability, T/C [9]: 99%
- viability, T/C [10]: 87.8%
- viability, T/C [11]: 99.6%
- viability, T/C [12]: 74.8%
- viability, T/C [13]: 98.8%
- viability, T/C [14]: 72.2%
- viability, T/C [15]: 73.4%
- viability, T/C [16]: 80.1%
- viability, T/C [17]: 103%
- viability, T/C [18]: 89.4%
- viability, T/C [19]: 90.5%
- viability, T/C [20]: 71.2%
- viability, T/C [21]: 80.3%
- viability, T/C [22]: 97.8%
- viability, T/C [23]: 86%
- viability, T/C [24]: 84.5%
- viability, T/C [25]: 74.2%
- viability, T/C [26]: 84.7%
- viability, T/C [27]: 69.5%
- viability, T/C [28]: 82.7%
- viability, T/C [29]: 82.8%
- viability, T/C [30]: 77.8%
- viability, T/C [31]: 63.4%
- viability, T/C [32]: 65.7%
- viability, T/C [33]: 61.1%
- viability, T/C [34]: 54%
- viability, T/C [35]: 54.2%
- viability, T/C [36]: 60.8%
- viability, T/C [37]: 38.4%
- viability, T/C [38]: 40.4%
- viability, T/C [39]: 40.8%
- viability, T/C [40]: 31.7%
- viability, T/C [41]: 33%
- viability, T/C [42]: 40.1%

Compound: CC1(C)CCC(Nc2ncc(C(F)(F)F)c(-c3c[nH]c4c(P(C)(C)=O)c(C#N)ccc34)n2)CN1 (centres undefined) + CC(Nc1ncnc2nc[nH]c12)c1cc2cccc(Cl)c2c(=O)n1-c1ccccc1
- IC50 [1]: > 10 µM
- IC50 [2]: > 10 µM
- IC50 [3]: > 10 µM
- IC50 [4]: > 10 µM
- IC50 [5]: > 10 µM
- IC50 [6]: 4.1 µM
- viability, T/C [7]: 73.3%
- viability, T/C [8]: 62.5%
- viability, T/C [9]: 67.2%
- viability, T/C [10]: 71.9%
- viability, T/C [11]: 76.9%
- viability, T/C [12]: 48.4%
- viability, T/C [13]: 72.9%
- viability, T/C [14]: 69.9%
- viability, T/C [15]: 69.7%
- viability, T/C [16]: 59.8%
- viability, T/C [17]: 78.2%
- viability, T/C [18]: 48.6%
- viability, T/C [19]: 60.4%
- viability, T/C [20]: 70.9%
- viability, T/C [21]: 66%
- viability, T/C [22]: 64.6%
- viability, T/C [23]: 75.5%
- viability, T/C [24]: 51%
- viability, T/C [25]: 62.2%
- viability, T/C [26]: 63.5%
- viability, T/C [27]: 69.6%
- viability, T/C [28]: 57.6%
- viability, T/C [29]: 64.2%
- viability, T/C [30]: 47.1%
- viability, T/C [31]: 57.5%
- viability, T/C [32]: 60.3%
- viability, T/C [33]: 66.4%
- viability, T/C [34]: 60%
- viability, T/C [35]: 66.8%
- viability, T/C [36]: 40.5%
- viability, T/C [37]: 47.4%
- viability, T/C [38]: 60.1%
- viability, T/C [39]: 64.6%
- viability, T/C [40]: 51.7%
- viability, T/C [41]: 57.2%
- viability, T/C [42]: 29%

Compound: CC(Nc1ncnc2nc[nH]c12)c1cc2cccc(Cl)c2c(=O)n1-c1ccccc1 (centres undefined)
- viability, T/C (compound 0.0316 µM): 96.2% [middle of 8 runs]
- viability, T/C (compound 0.316 µM): 96.2% [middle of 8 runs]
- IC50 (compound alone, run of 04/25/2023): > 10 µM

Compound: Cn1nccc1Nc1nccc(-c2ccn(C(CO)c3ccc(Cl)c(F)c3)c(=O)c2)n1 (centres undefined) + Cc1nc(NC(=O)N2CCCC2C(N)=O)sc1-c1ccnc(C(C)(C)C(F)(F)F)c1
- IC50 [1]: > 10 µM
- IC50 [2]: > 10 µM
- IC50 [3]: > 10 µM
- IC50 [4]: > 10 µM
- IC50 [5]: > 10 µM
- IC50 [6]: < 0.0316 µM
- viability, T/C [7]: 99.1%
- viability, T/C [8]: 81.6%
- viability, T/C [9]: 92.6%
- viability, T/C [10]: 102%
- viability, T/C [11]: 103%
- viability, T/C [12]: 96.3%
- viability, T/C [13]: 111%
- viability, T/C [14]: 95.2%
- viability, T/C [15]: 98.8%
- viability, T/C [16]: 89.4%
- viability, T/C [17]: 117%
- viability, T/C [18]: 85.7%
- viability, T/C [19]: 86.8%
- viability, T/C [20]: 93.3%
- viability, T/C [21]: 97.6%
- viability, T/C [22]: 101%
- viability, T/C [23]: 104%
- viability, T/C [24]: 92.4%
- viability, T/C [25]: 85.4%
- viability, T/C [26]: 92.7%
- viability, T/C [27]: 86.6%
- viability, T/C [28]: 88%
- viability, T/C [29]: 110%
- viability, T/C [30]: 82%
- viability, T/C [31]: 65.9%
- viability, T/C [32]: 70.8%
- viability, T/C [33]: 73.5%
- viability, T/C [34]: 83.3%
- viability, T/C [35]: 76.9%
- viability, T/C [36]: 70.8%
- viability, T/C [37]: 39.5%
- viability, T/C [38]: 39.9%
- viability, T/C [39]: 41.7%
- viability, T/C [40]: 42.9%
- viability, T/C [41]: 46.4%
- viability, T/C [42]: 48.7%
